Data reported in ChEMBL document CHEMBL1128838, “Synthesis of antiparasitic licorice chalcones” (1995).

Tests used:
[1] = Evaluated for the PHA (phytohemagglutininin A) induced proliferation of human peripheral lymphocytes at a dose of 1 ug/ml; assay type: functional
[2] = Evaluated for the PHA (phytohemagglutininin A) induced proliferation of human peripheral lymphocytes at a dose of 10 ug/ml; assay type: functional
[3] = Evaluated for the PHA (phytohemagglutininin A) induced proliferation of human peripheral lymphocytes at a dose of 20 ug/ml; assay type: functional
[4] = Evaluated for the PHA (phytohemagglutininin A) induced proliferation of human peripheral lymphocytes at a dose of 5 ug/ml; assay type: functional
Leishmania major [5] = test: Antiparasitic activity was estimated by ability to inhibit the in vitro growth of Leishmania major measured by the decreased uptake of [3H]thymidine at 1 ug/mL; assay type: functional
Leishmania major [6] = test: Antiparasitic activity was estimated by ability to inhibit the in vitro growth of Leishmania major measured by the decreased uptake of [3H]thymidine at 10 ug/mL; assay type: functional
Leishmania major [7] = test: Antiparasitic activity was estimated by ability to inhibit the in vitro growth of Leishmania major measured by the decreased uptake of [3H]-thymidine at 20 ug/mL; assay type: functional
Leishmania major [8] = test: Antiparasitic activity was estimated by ability to inhibit the in vitro growth of Leishmania major measured by the decreased uptake of [3H]thymidine at 5 ug/mL; assay type: functional
Leishmania major [9] = test: Compound was tested for its ability to inhibit the growth of Leishmania major at a dose of 10 ug/ml; assay type: functional, organism-based
Leishmania major [10] = test: Compound was tested for its ability to inhibit the growth of Leishmania major at a dose of 100 ug/ml; assay type: functional, organism-based
Leishmania major [11] = test: Compound was tested for its ability to inhibit the growth of Leishmania major at a dose of 1 ug/ml; assay type: functional, organism-based
[12] = Evaluated for the PHA (phytohemagglutininin A) induced proliferation of human peripheral lymphocytes at a dose of 100 ug/ml; assay type: functional
[13] = Evaluated for the PHA (phytohemagglutininin A) induced proliferation of human peripheral lymphocytes at a dose of 25 ug/ml; assay type: functional
[14] = Evaluated for the PHA (phytohemagglutininin A) induced proliferation of human peripheral lymphocytes at a dose of 50 ug/ml; assay type: functional
Leishmania major [15] = test: Antiparasitic activity was estimated by ability to inhibit the in vitro growth of Leishmania major measured by the decreased uptake of [3H]thymidine at 100 ug/mL; assay type: functional
Leishmania major [16] = test: Antiparasitic activity was estimated by ability to inhibit the in vitro growth of Leishmania major measured by the decreased uptake of [3H]thymidine at 25 ug/mL; assay type: functional
Leishmania major [17] = test: Antiparasitic activity was estimated by ability to inhibit the in vitro growth of Leishmania major measured by the decreased uptake of [3H]thymidine at 50 ug/mL; assay type: functional
Leishmania donovani [18] = test: Inhibition of [3H]thymidine uptake in amastigotes of Leishmania donovani in infected human peripheral blood monocyte derived macrophages at a dose of 0.5 ug/ml; assay type: functional
Leishmania donovani [19] = test: Inhibition of [3H]thymidine uptake in amastigotes of Leishmania donovani in infected human peripheral blood monocyte derived macrophages at a dose of 1 ug/ml; assay type: functional
Leishmania donovani [20] = test: Inhibition of [3H]-thymidine uptake in amastigotes of Leishmania donovani in infected human peripheral blood monocyte derived macrophages at a dose of 10 ug/ml; assay type: functional
Leishmania donovani [21] = test: Inhibition of [3H]thymidine uptake in amastigotes of Leishmania donovani in infected human peripheral blood monocyte derived macrophages at a dose of 5 ug/ml; assay type: functional

Compound | inhibition at 1 µg/mL [1] | inhibition at 10 µg/mL [2] | inhibition at 20 µg/mL [3] | inhibition at 5 µg/mL [4] | inhibition at 1 µg/mL (Leishmania major [5]) | inhibition at 10 µg/mL (Leishmania major [6]) | inhibition at 20 µg/mL (Leishmania major [7]) | inhibition at 5 µg/mL (Leishmania major [8]) | other results
COc1c(/C=C/C(=O)c2ccc(O)cc2)ccc(O)c1CC=C(C)C | 5.5% | 30.4% | 73.2% | 14.8% | 3.9% | 51.5% | 93.8% | 20.7% | 
Pentostam |  |  |  |  |  |  |  |  | inhibition (Leishmania major [9]): 35%; inhibition (Leishmania major [10]): 95%; inhibition (Leishmania major [11]): 18%
COc1cc(O)ccc1/C=C/C(=O)c1ccc(O)cc1 [ECHINATIN] |  | 9.2% |  | 7.8% |  | 30% |  | 16.4% | inhibition at 100 µg/mL [12]: 26.4%; inhibition at 25 µg/mL [13]: 10.4%; inhibition at 50 µg/mL [14]: 18%; inhibition at 100 µg/mL (Leishmania major [15]): 86.8%; inhibition at 25 µg/mL (Leishmania major [16]): 50.3%; inhibition at 50 µg/mL (Leishmania major [17]): 69.3%; inhibition at 0.5 µg/mL (Leishmania donovani [18]): 57%; inhibition at 1 µg/mL (Leishmania donovani [19]): 62%; inhibition at 10 µg/mL (Leishmania donovani [20]): 94%; inhibition at 5 µg/mL (Leishmania donovani [21]): 92%
C=CC(C)(C)c1cc(/C=C/C(=O)c2ccc(O)cc2)c(OC)cc1O [LICOAGROCHACONE A] | 4.7% | 39.7% | 65.3% | 20.8% | 3.6% | 91.9% | 96% | 63.9% | 
